Reference: ChEMBL document CHEMBL2346512, “Inhibitory effect of 4,4'-dihydroxy-α-truxillic acid derivatives on NO production in lipopolysaccharide-induced RAW 264.7 macrophages and exploration of structure-activity relationships” (Bioorg Med Chem Lett, 2013)

Tests used:
RAW264.7 [1] = assay: Inhibition of LPS-induced NO production in mouse RAW264.7 cells at 25 uM pretreated for 20 mins before LPS challenge measured after 18 hrs post LPS challenge by spectrophotometry; assay type: functional
[2] = Cytotoxicity against mouse RAW264.7 cells assessed as cell viability at 25 uM after 18 hrs by CCK-8 assay; assay type: cell-based; conditions: read-out: Activity
RAW264.7 [3] = assay: Cytotoxicity against mouse RAW264.7 cells assessed as cell viability after 18 hrs by CCK-8 assay; assay type: cell-based; conditions: RAW264.7, 18 h
RAW264.7 [4] = assay: Inhibition of LPS-induced NO production in mouse RAW264.7 cells pretreated for 20 mins before LPS challenge measured after 18 hrs post LPS challenge by spectrophotometry; assay type: functional, cell-based
RAW264.7 [5] = assay: Inhibition of LPS-induced NO production in mouse RAW264.7 cells at 100 uM pretreated for 20 mins before LPS challenge measured after 18 hrs post LPS challenge by spectrophotometry; assay type: functional
RAW264.7 [6] = assay: Inhibition of LPS-induced NO production in mouse RAW264.7 cells at 50 uM pretreated for 20 mins before LPS challenge measured after 18 hrs post LPS challenge by spectrophotometry; assay type: functional
RAW264.7 [7] = assay: Inhibition of LPS-induced NO production in mouse RAW264.7 cells at 12.5 uM pretreated for 20 mins before LPS challenge measured after 18 hrs post LPS challenge by spectrophotometry; assay type: functional
RAW264.7 [8] = assay: Cytotoxicity against mouse RAW264.7 cells assessed as cell viability up to 50 uM after 18 hrs by CCK-8 assay; assay type: cell-based; conditions: raw264.7, 18 h

SMILES	inhibition at 25 µM (RAW264.7 [1]) [%]	viability at 18 h, 25 µM [2] [%]	other results
C#CCOCCOC(=O)[C@H]1[C@H](c2ccc(O)cc2)[C@H](C(=O)OCCOCC#C)[C@H]1c1ccc(O)cc1	13.5	100	
CCC[C@H]1CC[C@H]([C@H]2CC[C@@H](OC(=O)[C@H]3[C@H](c4ccc(O)cc4)[C@H](C(=O)O[C@H]4CC[C@@H]([C@H]5CC[C@H](CCC)CC5)CC4)[C@H]3c3ccc(O)cc3)CC2)CC1	0	100	
O=C(O)[C@H]1[C@H](c2ccc(O)cc2)[C@H](C(=O)O)[C@H]1c1ccc(O)cc1	5.5	100	
O=C(OC1CCCCCC1)[C@H]1[C@H](c2ccc(O)cc2)[C@H](C(=O)OC2CCCCCC2)[C@H]1c1ccc(O)cc1	16	100	
O=C(OCC(F)(F)C(F)F)[C@H]1[C@H](c2ccc(O)cc2)[C@H](C(=O)OCC(F)(F)C(F)F)[C@H]1c1ccc(O)cc1	15.7	100	
O=C(OC1CCCC1)[C@H]1[C@H](c2ccc(O)cc2)[C@H](C(=O)OC2CCCC2)[C@H]1c1ccc(O)cc1	62.1	58	IC50 (RAW264.7 [3]): 31.2 µM; IC50 (RAW264.7 [4]): 21.1 µM
O=C(OCCF)[C@H]1[C@H](c2ccc(O)cc2)[C@H](C(=O)OCCF)[C@H]1c1ccc(O)cc1	13	100	
O=C(O)/C=C/c1ccc(O)cc1 [COUMARIC ACID]	0		inhibition at 100 µM (RAW264.7 [5]): 13.2%; inhibition at 50 µM (RAW264.7 [6]): 6.5%; inhibition at 12.5 µM (RAW264.7 [7]): 0%
O=C(OCC1CCCO1)[C@H]1[C@H](c2ccc(O)cc2)[C@H](C(=O)OCC2CCCO2)[C@H]1c1ccc(O)cc1 (stereo not given in full)	10.2	96	
O=C(OCC1CC1)[C@H]1[C@H](c2ccc(O)cc2)[C@H](C(=O)OCC2CC2)[C@H]1c1ccc(O)cc1	33.9	95	
C#CCCOC(=O)[C@H]1[C@H](c2ccc(O)cc2)[C@H](C(=O)OCCC#C)[C@H]1c1ccc(O)cc1	28.3	100	
CCC/C=C/COC(=O)[C@H]1[C@H](c2ccc(O)cc2)[C@H](C(=O)OC/C=C/CCC)[C@H]1c1ccc(O)cc1	72.3	40	IC50 (RAW264.7 [3]): 19.3 µM; IC50 (RAW264.7 [4]): 17.6 µM
CC(C)[C@H]1CC[C@H](C)C[C@@H]1OC(=O)[C@H]1[C@H](c2ccc(O)cc2)[C@H](C(=O)O[C@H]2C[C@@H](C)CC[C@@H]2C(C)C)[C@H]1c1ccc(O)cc1	17.4	90	
O=C(OCCI)[C@H]1[C@H](c2ccc(O)cc2)[C@H](C(=O)OCCI)[C@H]1c1ccc(O)cc1	49.9	98	
CC(C)[C@@H]1CC[C@@H](C)C[C@H]1OC(=O)[C@H]1[C@H](c2ccc(O)cc2)[C@H](C(=O)O[C@@H]2C[C@H](C)CC[C@H]2C(C)C)[C@H]1c1ccc(O)cc1	72	98	IC50 (RAW264.7 [3]): 60.3 µM; IC50 (RAW264.7 [4]): 17.5 µM; Activity (RAW264.7 [8]): Non-toxic
C=C(C)C1CC=C(COC(=O)[C@H]2[C@H](c3ccc(O)cc3)[C@H](C(=O)OCC3=CCC(C(=C)C)CC3)[C@H]2c2ccc(O)cc2)CC1 (stereo not given in full)	36.1	78	
CC(C)=CCC/C(C)=C/COC(=O)[C@H]1[C@H](c2ccc(O)cc2)[C@H](C(=O)OC/C=C(\C)CCC=C(C)C)[C@H]1c1ccc(O)cc1	33.9	80	
O=C(OC(C(F)(F)F)C(F)(F)F)[C@H]1[C@H](c2ccc(O)cc2)[C@H](C(=O)OC(C(F)(F)F)C(F)(F)F)[C@H]1c1ccc(O)cc1	55	32.6	IC50 (RAW264.7 [3]): 17.6 µM; IC50 (RAW264.7 [4]): 22.6 µM
O=C(OCCC1CCCCC1)[C@H]1[C@H](c2ccc(O)cc2)[C@H](C(=O)OCCC2CCCCC2)[C@H]1c1ccc(O)cc1	19.1	100	

SMILES	inhibition at 25 µM (RAW264.7 [1]) [%]	viability at 18 h, 25 µM [2] [%]	other results
O=C(OCC12CC3CC(CC(C3)C1)C2)[C@H]1[C@H](c2ccc(O)cc2)[C@H](C(=O)OCC23CC4CC(CC(C4)C2)C3)[C@H]1c1ccc(O)cc1	27.8	98	
O=C(OC1CCOCC1)[C@H]1[C@H](c2ccc(O)cc2)[C@H](C(=O)OC2CCOCC2)[C@H]1c1ccc(O)cc1	18	100	
C=C(C)COC(=O)[C@H]1[C@H](c2ccc(O)cc2)[C@H](C(=O)OCC(=C)C)[C@H]1c1ccc(O)cc1	27.9	100	
CC(C)(C)[Si](C)(C)Oc1ccc(/C=C/C(=O)O)cc1	0		inhibition at 100 µM (RAW264.7 [5]): 6.5%; inhibition at 50 µM (RAW264.7 [6]): 2.2%; inhibition at 12.5 µM (RAW264.7 [7]): 0%
CCC[C@H]1CC[C@H]([C@H]2CC[C@H](OC(=O)[C@H]3[C@H](c4ccc(O)cc4)[C@H](C(=O)O[C@H]4CC[C@H]([C@H]5CC[C@H](CCC)CC5)CC4)[C@H]3c3ccc(O)cc3)CC2)CC1	0	100	
CCOCCOCCOCCOC(=O)[C@H]1[C@H](c2ccc(O)cc2)[C@H](C(=O)OCCOCCOCCOCC)[C@H]1c1ccc(O)cc1	15.7	100	
COCCOCCOC(=O)[C@H]1[C@H](c2ccc(O)cc2)[C@H](C(=O)OCCOCCOC)[C@H]1c1ccc(O)cc1	21.9	100	
O=C(OCC(F)(F)F)[C@H]1[C@H](c2ccc(O)cc2)[C@H](C(=O)OCC(F)(F)F)[C@H]1c1ccc(O)cc1	65.3	78	IC50 (RAW264.7 [3]): 38.5 µM; IC50 (RAW264.7 [4]): 20.8 µM
CC(C)=CCC/C(C)=C\COC(=O)[C@H]1[C@H](c2ccc(O)cc2)[C@H](C(=O)OC/C=C(/C)CCC=C(C)C)[C@H]1c1ccc(O)cc1	42.6	56	
CCCCOCCOC(=O)[C@H]1[C@H](c2ccc(O)cc2)[C@H](C(=O)OCCOCCCC)[C@H]1c1ccc(O)cc1	45.8	95	IC50 (RAW264.7 [3]): 44.5 µM; IC50 (RAW264.7 [4]): 32.6 µM
CC(C)(C)C1CCC(OC(=O)[C@H]2[C@H](c3ccc(O)cc3)[C@H](C(=O)OC3CCC(C(C)(C)C)CC3)[C@H]2c2ccc(O)cc2)CC1 (stereo not given in full)	0	100	
O=C(OC1CCCCC1)[C@H]1[C@H](c2ccc(O)cc2)[C@H](C(=O)OC2CCCCC2)[C@H]1c1ccc(O)cc1	76	67.8	IC50 (RAW264.7 [3]): 33 µM; IC50 (RAW264.7 [4]): 16.4 µM
CCCOCCOC(=O)[C@H]1[C@H](c2ccc(O)cc2)[C@H](C(=O)OCCOCCC)[C@H]1c1ccc(O)cc1	23.6	100	
CC(C)OCCOC(=O)[C@H]1[C@H](c2ccc(O)cc2)[C@H](C(=O)OCCOC(C)C)[C@H]1c1ccc(O)cc1	22	100	
O=C(OCC1CCCCC1)[C@H]1[C@H](c2ccc(O)cc2)[C@H](C(=O)OCC2CCCCC2)[C@H]1c1ccc(O)cc1	46.9	37	IC50 (RAW264.7 [3]): 17.9 µM; IC50 (RAW264.7 [4]): 29.1 µM
O=C(OC1CCC1)[C@H]1[C@H](c2ccc(O)cc2)[C@H](C(=O)OC2CCC2)[C@H]1c1ccc(O)cc1	55	62.6	IC50 (RAW264.7 [3]): 32.3 µM; IC50 (RAW264.7 [4]): 19.8 µM
COCCOCCOCCOC(=O)[C@H]1[C@H](c2ccc(O)cc2)[C@H](C(=O)OCCOCCOCCOC)[C@H]1c1ccc(O)cc1	11.9	100	
CSCCOC(=O)[C@H]1[C@H](c2ccc(O)cc2)[C@H](C(=O)OCCSC)[C@H]1c1ccc(O)cc1	24.4	100	
N=C(N)NN [PIMAGEDINE]	56		IC50 (RAW264.7 [4]): 18.7 µM; inhibition at 50 µM (RAW264.7 [6]): 71%
